Experimental data: patent US5441941A, “1,2-dihydroellipticines with activity against CNS specific cancer” (The United States of America as represented by the …, priority 1993, dated 1995)

Experiments:
HOP-62 = assay: NCI in vitro screen, SRB percent growth, Non-Small Cell Lung Cancer
CAKI-1 = assay: NCI in vitro screen, SRB percent growth, Renal Cancer
COLO 205 = assay: NCI in vitro screen, SRB percent growth, Colon Cancer
SF-539 = assay: NCI in vitro screen, SRB percent growth, CNS Cancer
RXF-631 = assay: NCI in vitro screen, SRB percent growth, Renal Cancer
RPMI-8226 = assay: cells; details: Homo sapiens
CNS cancer cell lines = assay: NCI in vitro screen, overall result on CNS cancer cell lines; details: Tables I and II
HCT-15 = assay: NCI in vitro screen, SRB percent growth, Colon Cancer
LOX IMVI = assay: NCI in vitro screen, SRB percent growth, Melanoma
M14 = assay: NCI in vitro screen, SRB percent growth, Melanoma
U251 = assay: NCI in vitro screen, SRB percent growth, CNS Cancer
A549/ATCC = assay: NCI in vitro screen, SRB percent growth, Non-Small Cell Lung Cancer
HT29 = assay: NCI in vitro screen, SRB percent growth, Colon Cancer
K-562 = assay: NCI in vitro screen, SRB percent growth, Leukemia
IGROV1 = assay: NCI in vitro screen, SRB percent growth, Ovarian Cancer
TK-10 = assay: NCI in vitro screen, SRB percent growth, Renal Cancer
HCT-116 = assay: NCI in vitro screen, SRB percent growth, Colon Cancer
[1] = Log10 Concentration -4.0, 100 µM
[2] = Log10 Concentration -7.0, 0.1 µM
[3] = RPMI-8226, read-out: Percent Growth

COc1ccc2[nH]c3c(C)c4c(c(C)c3c2c1)CN(C)C=C4 [Formula VII]
Percent Growth (HOP-62; [1]): -81%
Percent Growth (HOP-62; Log10 Concentration -5.0): -57%
Percent Growth (HOP-62; Log10 Concentration -6.0, 1 µM): 14%
Percent Growth (HOP-62; [2]): 106%
Percent Growth (HOP-62; Log10 Concentration -8.0): 115%
TGI (HOP-62; PG=0): 1.58 µM
GI50 (HOP-62; PG=+50): 0.406 µM
CC50 (HOP-62; read-out: LC-50, PG=-50): 7.89 µM
Percent Growth (CAKI-1; [1]): -11%
Percent Growth (CAKI-1; Log10 Concentration -5.0): 38%
Percent Growth (CAKI-1; Log10 Concentration -6.0, 1 µM): 83%
Percent Growth (CAKI-1; [2]): 107%
Percent Growth (CAKI-1; Log10 Concentration -8.0): 110%
TGI (CAKI-1; PG=0): 60.7 µM
GI50 (CAKI-1; PG=+50): 5.5 µM
CC50 (CAKI-1; read-out: LC-50, PG=-50): > 100 µM
Percent Growth (COLO 205; [1]): -72%
Percent Growth (COLO 205; [2]): 91%
Percent Growth (COLO 205; Log10 Concentration -8.0): 99%
TGI (COLO 205; PG=0): 5.6 µM
GI50 (COLO 205; PG=+50): 1.42 µM
CC50 (COLO 205; read-out: LC-50, PG=-50): 37.1 µM
Percent Growth (SF-539; [1]): -33%
Percent Growth (SF-539; Log10 Concentration -5.0): -43%
Percent Growth (SF-539; Log10 Concentration -6.0, 1 µM): 30%
Percent Growth (SF-539; [2]): 99%
Percent Growth (SF-539; Log10 Concentration -8.0): 116%
TGI (SF-539; PG=0): 2.6 µM
GI50 (SF-539; PG=+50): 0.518 µM
CC50 (SF-539; read-out: LC-50, PG=-50): > 100 µM
Percent Growth (RXF-631; [1]): -29%
Percent Growth (RXF-631; Log10 Concentration -5.0): 18%
Percent Growth (RXF-631; Log10 Concentration -6.0, 1 µM): 38%
Percent Growth (RXF-631; [2]): 83%
Percent Growth (RXF-631; Log10 Concentration -8.0): 106%
TGI (RXF-631; PG=0): 24.3 µM
GI50 (RXF-631; PG=+50): 0.536 µM
CC50 (RXF-631; read-out: LC-50, PG=-50): > 100 µM
GI50 (RPMI-8226; RPMI-8226): 6.31 µM
CC50 (RPMI-8226; RPMI-8226, read-out: LC-50): > 100 µM
activity at 0.01 µM (RPMI-8226; [3]): 104%
activity at 0.1 µM (RPMI-8226; [3]): 101%
activity at 1 µM (RPMI-8226; [3]): 99%
activity at 10 µM (RPMI-8226; [3]): 38%
activity at 100 µM (RPMI-8226; [3]): -38%
IC (TGI) (RPMI-8226; RPMI-8226, read-out: TGI): 31.5 µM
effect against CNS cancer cell lines (CNS cancer cell lines): particularly effective against CNS cancer cell lines
Percent Growth (HCT-15; [1]): 16%
Percent Growth (HCT-15; Log10 Concentration -5.0): 96%
Percent Growth (HCT-15; Log10 Concentration -6.0, 1 µM): 111%
Percent Growth (HCT-15; [2]): 114%
Percent Growth (HCT-15; Log10 Concentration -8.0): 118%
TGI (HCT-15; PG=0): > 100 µM
GI50 (HCT-15; PG=+50): 37.7 µM
CC50 (HCT-15; read-out: LC-50, PG=-50): > 100 µM
Percent Growth (LOX IMVI; [1]): -19%
Percent Growth (LOX IMVI; Log10 Concentration -5.0): 58%
Percent Growth (LOX IMVI; Log10 Concentration -6.0, 1 µM): 119%
Percent Growth (LOX IMVI; Log10 Concentration -8.0): 129%
TGI (LOX IMVI; PG=0): 56.9 µM
GI50 (LOX IMVI; PG=+50): 12.8 µM
CC50 (LOX IMVI; read-out: LC-50, PG=-50): > 100 µM
Percent Growth (M14; [1]): -98%
Percent Growth (M14; Log10 Concentration -5.0): 40%
Percent Growth (M14; Log10 Concentration -6.0, 1 µM): 103%
Percent Growth (M14; [2]): 111%
Percent Growth (M14; Log10 Concentration -8.0): 99%
TGI (M14; PG=0): 19.6 µM
GI50 (M14; PG=+50): 7.01 µM
CC50 (M14; read-out: LC-50, PG=-50): 45.2 µM
Percent Growth (U251; [1]): -47%
Percent Growth (U251; Log10 Concentration -5.0): -45%
Percent Growth (U251; Log10 Concentration -6.0, 1 µM): 3%
Percent Growth (U251; [2]): 87%
TGI (U251; PG=0): 1.18 µM
GI50 (U251; PG=+50): 0.276 µM
CC50 (U251; read-out: LC-50, PG=-50): > 100 µM
Percent Growth (A549/ATCC; [1]): -26%
Percent Growth (A549/ATCC; Log10 Concentration -5.0): 10%
Percent Growth (A549/ATCC; Log10 Concentration -6.0, 1 µM): 51%
Percent Growth (A549/ATCC; [2]): 87%
Percent Growth (A549/ATCC; Log10 Concentration -8.0): 102%
TGI (A549/ATCC; PG=0): 19.2 µM
GI50 (A549/ATCC; PG=+50): 1.05 µM
CC50 (A549/ATCC; read-out: LC-50, PG=-50): > 100 µM
Percent Growth (HT29; [1]): -73%
Percent Growth (HT29; Log10 Concentration -5.0): 24%
Percent Growth (HT29; Log10 Concentration -6.0, 1 µM): 88%
Percent Growth (HT29; [2]): 112%
Percent Growth (HT29; Log10 Concentration -8.0): 97%
TGI (HT29; PG=0): 17.8 µM
GI50 (HT29; PG=+50): 3.92 µM
CC50 (HT29; read-out: LC-50, PG=-50): 58 µM
Percent Growth (K-562; [1]): -24%
Percent Growth (K-562; Log10 Concentration -5.0): 11%
Percent Growth (K-562; Log10 Concentration -6.0, 1 µM): 75%
Percent Growth (K-562; [2]): 84%
TGI (K-562; PG=0): 20.4 µM
GI50 (K-562; PG=+50): 2.48 µM
CC50 (K-562; read-out: LC-50, PG=-50): > 100 µM
Percent Growth (IGROV1; [1]): -20%
Percent Growth (IGROV1; Log10 Concentration -5.0): 14%
Percent Growth (IGROV1; Log10 Concentration -6.0, 1 µM): 47%
Percent Growth (IGROV1; [2]): 80%
Percent Growth (IGROV1; Log10 Concentration -8.0): 105%
TGI (IGROV1; PG=0): 25.3 µM
GI50 (IGROV1; PG=+50): 0.819 µM
CC50 (IGROV1; read-out: LC-50, PG=-50): > 100 µM
Percent Growth (TK-10; [1]): -6%
Percent Growth (TK-10; Log10 Concentration -5.0): 64%
Percent Growth (TK-10; Log10 Concentration -6.0, 1 µM): 114%
Percent Growth (TK-10; [2]): 127%
Percent Growth (TK-10; Log10 Concentration -8.0): 120%
TGI (TK-10; PG=0): 82.7 µM
GI50 (TK-10; PG=+50): 15.9 µM
CC50 (TK-10; read-out: LC-50, PG=-50): > 100 µM
Percent Growth (HCT-116; [1]): -28%
Percent Growth (HCT-116; Log10 Concentration -5.0): 29%
Percent Growth (HCT-116; Log10 Concentration -6.0, 1 µM): 80%
Percent Growth (HCT-116; [2]): 101%
Percent Growth (HCT-116; Log10 Concentration -8.0): 106%
TGI (HCT-116; PG=0): 32.2 µM
GI50 (HCT-116; PG=+50): 3.88 µM
CC50 (HCT-116; read-out: LC-50, PG=-50): > 100 µM
